Test results published in patent publication US20230416245A1, “ADENOSINE ANALOGS FOR THE TREATMENT OF DISEASE” (BIOINTERVENE, INC., priority 2020, published 2023).

Assays:
ADORA3 = ADORA3 (Homo sapiens (Human), UniProt P0DMS8); experiment: Intracellular calcium release assay (FLIPR); type: cell-based; settings: for EC50: CHO-K1 cells, Fluo-4, top concentration 10 μM, read-out: Cell Calcium Assay EC50; for Cell Calcium Efficacy (%): percentage of the response to NECA
Description: Example 32: Intracellular Calcium Release Assay
Cell Culture: The table below lists the cell lines used that stably express the 4 subtypes of adenosine receptors, along with the growth medium used for each:
For experiments with the ADORA1- and ADORA3-expressing cells, the medium was aspirated and the cells washed twice with 10 mL DPBS. Two mL of trypsin was added and incubated at 37° C. for 1 minute. Then 10 mL of platting media was added to terminate the digestion and 1 mL of the solution was taken out for cell counting. ADORA2A- and ADORA2B-expressing cells were thawed rapidly in a 37° C. water bath. Cell suspensions were transferred to 50 mL conical tubes. Plating media was added to the 10 mL mark and then 1 mL taken out for cell counting. The 50 mL tubes containing the various types of cells were centrifuged at 1000 g. Then the supernatants were aspirated, being careful not to aspirate the cells. The cell pellets were resuspended in 3-5 mL platting media, then 0.5 mL was taken out for cell counting. Then the cell suspension was diluted to 1×10^6 cells/mL (20,000 cells per 20 μL per well) in platting medium, and cells were seeded into 384-well cell plates (Greiner-781946). The 384-well cell plate was placed in a 37° C./5% CO2 incubator (Thermo-371, Thermo Scientific) for 16-20 hours.
Preparation of the intracellular calcium imaging agent (Fluo-4 Direct™ Calcium Assay Kit, Invitrogen-F10471, Thermo Scientific): One mL of FLIPR Assay Buffer was added to 77 mg probenecid to make a 250 mM solution, which was used fresh for each day. One vial of Fluo-4 Direct™ crystals was thawed and 10 mL of FLIPR Assay Buffer was added to the vial. 0.2 mL of probenecid was added to each 10 mL vial of Fluo-Direct™ solution, such that the final assay concentration was 2.5 mM. It was vortexed, left to stand >5 min and protected from light. The dye was prepared fresh each day.
Compound Preparation: Compound plates were prepared as follows. First, the test compound was diluted to prepare a 2 mM solution and then 10-point 3-fold serial dilutions were made using ECHO (ECHO 555, LabCyte), then 900 nL was transferred to the compound plate. For all targets, the final top concentration of the test compound was […]. For agonist reference compounds, 10-point and 3-fold serial dilutions were made, then 900 nL was transferred to the assay plate. Then 30 μL of assay buffer was added to the compound plate and then the plate was centrifuged at 1000 rpm for 1 min.
FLIPR Assay: Cell plates were removed from the incubator, to which were added 20 μL 2×Fluo-4 Direct™ solution, then the plates were reincubated in a 5% CO2, 37° C. incubator for 50 min and at RT for 10 min. To run the protocol on the Fluorescent Imaging Plate Reader (FLIPR) TETRA (MD-FT0249, Molecular Devices, Inc.), 10 μL of assay buffer was transferred from the 384-well plate (Greiner-781280) to the cell plates and then the fluorescence signal was read. Then 10 μL of compound solution was transferred from the compound plate to the cell plates and the fluorescence signal was read. The “Max-Min” was calculated, starting from Read 91 to the maximum allowed. For agonists, activation %=(RLU−LC)/(HC−LC)*100, based on the following: RLU=relative light unit, 91 to maximum allowed signal; HC=average signal of the high concentration of agonist; LC=average signal of DMSO well. The data were fitted using GraphPad Prism 5, using the model “log(agonist) vs. response—Variable slope” to determine the EC50 value. The receptor efficacy of the test compound relative to the agonist NECA was calculated as a percentage (%) of the response to […]. Table 10 includes EC50 values for compounds described herein.

[1] = molecular target: human adenosine A3 receptor (Homo sapiens (Human), UniProt P0DMS8); experiment: Intracellular cAMP levels (inhibition of forskolin-stimulated cAMP production); type: cell-based; settings: for EC50: CHO cells expressing human adenosine A3 receptors, forskolin 10 μM; for CAMP Efficacy (%): maximal response as percentage of the response produced by 100 nM IB-MECA
Description: Example 31: Intracellular cAMP Levels
The method followed is that published in Yates L, Clark J H, Martin T J, James S, Broadley K J, Kidd E J. Radioligand binding and functional responses of ligands for human recombinant adenosine A3 receptors. Auton Autacoid Pharmacol. 2006 April; 26(2):191-200.
Materials and Cell Culture: Adenosine deaminase was obtained from Roche (Lewes, UK). Forskolin was obtained from Sigma-Aldrich (Poole, UK). The sources of other materials are provided above in Example 1. CHO-K1 cells stably transfected with the human adenosine A3 receptor were grown in Dulbecco's modified Eagles medium with nutrient mixture F12 containing NaHCO3 and Glutamax. Media was supplemented with 10% fetal calf serum, geneticin (G418; 0.67 mg/mL), hygromycin (500 μg/mL) and adenosine deaminase (1 U/mL). Cells were maintained at 37° C. with 5% CO2 in air.
cAMP Measurements: Intracellular cAMP production was measured directly using a non-acetylation cAMP enzyme immunoassay (Amersham Biosciences, Little Chalfont, UK). Cultured CHO cells expressing human adenosine A3 receptors were allowed to plate overnight in 96-well plates in culture medium containing adenosine deaminase. Twenty-four hours later, they were incubated with adenosine analogues or compounds of the invention (0.1 nM-1 μM) for 5 min at 37° C., followed by incubation with forskolin (10 μM) for 10 min. The cells were then lysed with 200 μL of lysis reagent 1 provided with the kit for 10 min to release intracellular cAMP. Aliquots of the supernatants were then transferred to a 96-well microtitre plate coated with donkey anti-rabbit IgG; 100-μL cAMP standards (12.5-3200 fmol/well) were also added to the microtitre plate; 100 μL of rabbit anti-cAMP antibody was added to all wells and incubated at 2-5° C. for 2 h. The antiserum was made up in lysis reagent 2, which sequesters the key component in lysis reagent 1 and ensures that cAMP is free for subsequent analysis. Then 50 μL of cAMP peroxidase conjugate was added to all wells and left to incubate for 60 min at 2-5° C. to allow competition for the antibody between the un-labelled and horse radish peroxidase (HRP)-labelled cAMP. Wells were then washed with buffer and 150 μL of enzyme substrate containing 3,3′,5,5′-tetramethylbenzidine/hydrogen peroxide in 20% (v/v) dimethylformamide was added to each well and left to incubate for 60 min on a Titramax 100 microtitre plate shaker (Heidolph Instruments, Schwabach, Germany) at room temperature for color development. The reaction was stopped by the addition of 100 μL of 1 M sulfuric acid and the optical density (OD) read at 450 nm on a spectrophotometric MRX microplate reader (Dynex Technologies, Chantilly, VA, USA).
Analyses: Each sample/standard was analyzed in duplicate and the resulting OD values averaged. The percent bound (B/Bo) for each standard and sample was calculated using the following relationship: […]
where B is the specific OD for standard/sample and Bo is the specific OD for the zero standard. A standard curve was generated by plotting % B/Bo as a function of the log fmol cAMP standard per well. The fmol per well value for cAMP in each sample was then read from the graph. The results are expressed as a percent of control agonist response: (measured response/control response)*100 in the presence of the compounds of the invention. Concentration-response curves for inhibition of cAMP production were constructed for all compounds of the invention and reference compounds. The EC50 values (concentration producing a half-maximal response) were determined by non-linear regression analysis of the concentration-response curves generated with mean replicate values using Hill equation curve fitting, according to the equation:
where Y=response, A=left asymptote of the curve, D=right asymptote of the curve, C=compound concentration, and C50=EC50, and nH=slope factor. […]

Chain of human adenosine A3 receptor (P0DMS8 whole entry): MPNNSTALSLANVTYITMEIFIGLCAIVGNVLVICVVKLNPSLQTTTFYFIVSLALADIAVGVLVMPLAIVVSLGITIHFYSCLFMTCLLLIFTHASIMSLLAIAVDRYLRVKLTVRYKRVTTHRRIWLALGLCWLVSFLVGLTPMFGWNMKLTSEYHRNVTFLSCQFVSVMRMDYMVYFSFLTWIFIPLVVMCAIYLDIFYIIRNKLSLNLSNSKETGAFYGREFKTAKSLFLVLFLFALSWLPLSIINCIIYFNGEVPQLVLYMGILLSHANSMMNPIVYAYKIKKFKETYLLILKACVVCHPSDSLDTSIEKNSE
Chain of ADORA3 (P0DMS8 whole entry): as above

Row | Structure (SMILES) | EC50 (ADORA3) [nM] | Cell Calcium Efficacy (%) (ADORA3) | EC50 [1] [nM] | CAMP Efficacy (%) [1] [%]
1 | Cc1cc(COc2ccc(Cl)cc2CNc2cc(Cl)nc3c2ncn3[C@H]2[C@H](O)[C@H](O)[C@@H]3C[C@@H]32)on1 [Compound 75, (1R,2R,3S,4R,5S)-4-(5-chloro-7-((5-chloro-2-((3-methylisoxazol-5-yl)methoxy)benzyl)amino)-3H-imidazo[4,5-b]pyridin-3-yl)bicyclo[3.1.0]hexane-2,3-diol] | ≥ 10000 | 1.7 | – | –
2 | CCNc1nc(C#CC2CC2)nc2c1ncn2[C@H]1[C@H](O)[C@H](O)[C@@H]2C[C@@H]21 [Compound 39, (1R,2R,3S,4R,5S)-4-(2-(cyclopropylethynyl)-6-(ethylamino)-9H-purin-9-yl)bicyclo[3.1.0]hexane-2,3-diol] | 9.8 | 15.4 | 0.2 | 54.4
3 | CCNc1cc(C)nc2c1ncn2[C@H]1[C@H](O)[C@H](O)[C@@H]2C[C@@H]21 [Compound 49, (1R,2R,3S,4R,5S)-4-(7-(ethylamino)-5-methyl-3H-imidazo[4,5-b]pyridin-3-yl)bicyclo[3.1.0]hexane-2,3-diol] | 17.1 | 6.8 | – | –
4 | CCNc1cc(Cl)nc2c1ncn2[C@H]1[C@H](O)[C@H](O)[C@@H]2C[C@@H]21 [Compound 43, (1R,2R,3S,4R,5S)-4-(5-chloro-7-(ethylamino)-3H-imidazo[4,5-b]pyridin-3-yl)bicyclo[3.1.0]hexane-2,3-diol] | 5.1 | 50.3 | – | –
5 | Cc1cc(NCc2cc(F)ccc2F)c2ncn([C@H]3[C@H](O)[C@H](O)[C@@H]4C[C@@H]43)c2n1 [Compound 50, (1R,2R,3S,4R,5S)-4-(7-((2,5-difluorobenzyl)amino)-5-methyl-3H-imidazo[4,5-b]pyridin-3-yl)bicyclo[3.1.0]hexane-2,3-diol] | 54 | 12.3 | – | –
6 | Cc1cc(NCC(F)F)c2ncn([C@H]3[C@H](O)[C@H](O)[C@@H]4C[C@@H]43)c2n1 [Compound 47, (1R,2R,3S,4R,5S)-4-(7-((2,2-difluoroethyl)amino)-5-methyl-3H-imidazo[4,5-b]pyridin-3-yl)bicyclo[3.1.0]hexane-2,3-diol] | 51.2 | 33.1 | – | –
7 | O[C@@H]1[C@H](O)[C@@H]2C[C@@H]2[C@H]1n1cnc2c(NCC(F)F)nc(C#CC3CC3)nc21 [Compound 38, (1R,2R,3S,4R,5S)-4-(2-(cyclopropylethynyl)-6-((2,2-difluoroethyl)amino)-9H-purin-9-yl)bicyclo[3.1.0]hexane-2,3-diol] | 14.5 | 24.7 | 1.8 | 65.1
8 | Cc1cc(NCCF)c2ncn([C@H]3[C@H](O)[C@H](O)[C@@H]4C[C@@H]43)c2n1 [Compound 48, (1R,2R,3S,4R,5S)-4-(7-((2-fluoroethyl)amino)-5-methyl-3H-imidazo[4,5-b]pyridin-3-yl)bicyclo[3.1.0]hexane-2,3-diol] | 37.6 | 13.1 | – | –
9 | O[C@@H]1[C@H](O)[C@@H]2C[C@@H]2[C@H]1n1cnc2c(NCC(F)F)cc(C3CC3)nc21 [Compound 78] | 110 | 7.2 | – | –
10 | O[C@@H]1[C@H](O)[C@@H]2C[C@@H]2[C@H]1n1cnc2c(NCCF)cc(Cl)nc21 [Compound 41, (1R,2R,3S,4R,5S)-4-(5-chloro-7-((2-fluoroethyl)amino)-3H-imidazo[4,5-b]pyridin-3-yl)bicyclo[3.1.0]hexane-2,3-diol] | 36.7 | 31.3 | – | –
11 | O[C@@H]1[C@H](O)[C@@H]2C[C@@H]2[C@H]1n1cnc2c(NCC(F)(F)F)nc(Cl)nc21 [Compound 37, (1R,2R,3S,4R,5S)-4-(2-chloro-6-((2,2,2-trifluoroethyl)amino)-9H-purin-9-yl)bicyclo[3.1.0]hexane-2,3-diol] | 12.8 | 49.4 | – | –
12 | O[C@@H]1[C@H](O)[C@@H]2C[C@@H]2[C@H]1n1cnc2c(NCC(F)F)nc(C3CC3)nc21 [Compound 58] | 25.4 | 14.2 | – | –
13 | O[C@@H]1[C@H](O)[C@@H]2C[C@@H]2[C@H]1n1cnc2c(NCC(F)(F)F)cc(Cl)nc21 [Compound 42, (1R,2R,3S,4R,5S)-4-(5-chloro-7-((2,2,2-trifluoroethyl)amino)-3H-imidazo[4,5-b]pyridin-3-yl)bicyclo[3.1.0]hexane-2,3-diol] | 43.4 | 45.8 | – | –
14 | O[C@@H]1[C@H](O)[C@@H]2C[C@@H]2[C@H]1n1cnc2c(NCCF)nc(Cl)nc21 [Compound 36, (1R,2R,3S,4R,5S)-4-(2-chloro-6-((2-fluoroethyl)amino)-9H-purin-9-yl)bicyclo[3.1.0]hexane-2,3-diol] | 9.2 | 44.9 | – | –
15 | CCNc1nc(Cl)nc2c1ncn2[C@H]1[C@H](O)[C@H](O)[C@]2(C(F)F)C[C@H]12 [Compound 53, (1S,2R,3S,4R,5S)-4-(2-chloro-6-(ethylamino)-9H-purin-9-yl)-1-(difluoromethyl)bicyclo[3.1.0]hexane-2,3-diol] | ≥ 10000 | 0.6 | – | –
